Columns and labels:
Type in all cases: in vivo
[1] = tested on: Spodoptera littoralis (Egyptian Cotton Leaf Worm); assay: Spodoptera littoralis cotton leaf disc spray test; conditions: foliar, 72 h, application rate 200 ppm, L1 larvae, 3 days after infestation, read-out: control (at least one of mortality, anti-feedant effect, growth inhibition)
Experimental: Spodoptera littoralis (Egyptian Cotton Leaf Worm)
Cotton leaf discs were placed on agar in 24-well microtiter plates and sprayed with aqueous test solutions prepared from 10,000 ppm DMSO stock solutions. After drying, the leaf discs were infested with five L1 larvae. The samples were assessed for mortality, anti-feedant effect, and growth inhibition in comparison to untreated samples 3 days after infestation. Control of Spodoptera littoralis by a test sample is when at least one of mortality, anti-feedant effect, and growth inhibition is higher than the untreated sample.

[2] = tested on: Plutella xylostella (Diamond Back Moth); assay: whole plant or invertebrate; conditions: 120 h, application rate 200 ppm, L2 larvae, 5 days after infestation, read-out: effect in at least one of the two categories (mortality or growth inhibition)
Experimental: Example B2: Plutella xylostella (Diamond Back Moth)
(§1) 24-well microtiter plates with artificial diet were treated with aqueous test solutions prepared from 10,000 ppm DMSO stock solutions by pipetting. After drying, the plates were infested with L2 larvae (10 to 15 per well). The samples were assessed for mortality and growth inhibition in comparison to untreated samples 5 days after infestation.

[3] = tested on: Diabrotica Balteata (Corn Root Worm); assay: whole plant or invertebrate; conditions: 96 h, application rate 200 ppm, L2 larvae, 4 days after infestation, read-out: effect in at least one of the two categories (mortality or growth inhibition)
Experimental: Example B3: Diabrotica Balteata (Corn Root Worm)
as §1, with “Maize sprouts, placed on an agar layer in 24-well” for “24-well”, “plates” for “plates with artificial diet”, “spraying.” for “pipetting.”, “(6” for “(10”, “10” for “15”, “4” for “5”

Cc1ccccc1-n1nc(-c2ccc(Cl)cc2)nc1CN1CCC(c2ncccn2)CC1 [Example 1.62]
≥ 80%: percent control (mortality, anti-feedant effect or growth inhibition) at 200 ppm [1] | percent effect (mortality or growth inhibition) at 200 ppm [2] | percent effect (mortality or growth inhibition) at 200 ppm [3]

Clc1ccc(-c2nc(CN3CCC(c4ncccn4)CC3)n(-c3ccc(Cl)cc3)n2)cc1 [Example 1.66]
≥ 80%: percent control (mortality, anti-feedant effect or growth inhibition) at 200 ppm [1] | percent effect (mortality or growth inhibition) at 200 ppm [2] | percent effect (mortality or growth inhibition) at 200 ppm [3]

COc1ccccc1-n1nc(-c2ccc(Cl)cc2)nc1CN1CCC(c2ncccn2)CC1 [Example 1.70]
≥ 80%: percent control (mortality, anti-feedant effect or growth inhibition) at 200 ppm [1] | percent effect (mortality or growth inhibition) at 200 ppm [2] | percent effect (mortality or growth inhibition) at 200 ppm [3]

Clc1ccc(-c2nc(CN3CCC(c4ncccn4)CC3)n(-c3ccc(Br)cc3)n2)cc1 [Example 1.76]
≥ 80%: percent control (mortality, anti-feedant effect or growth inhibition) at 200 ppm [1] | percent effect (mortality or growth inhibition) at 200 ppm [2] | percent effect (mortality or growth inhibition) at 200 ppm [3]

Clc1ccc(-c2nc(CN3CCC(c4ncccn4)CC3)n(-c3c(Cl)cc(Cl)cc3Cl)n2)cc1 [Example 1.77]
≥ 80%: percent control (mortality, anti-feedant effect or growth inhibition) at 200 ppm [1] | percent effect (mortality or growth inhibition) at 200 ppm [2] | percent effect (mortality or growth inhibition) at 200 ppm [3]

Clc1ccc(-c2nc(CN3CCC(c4ncccn4)CC3)n(-c3ccccn3)n2)cc1 [Example 1.78]
≥ 80%: percent control (mortality, anti-feedant effect or growth inhibition) at 200 ppm [1] | percent effect (mortality or growth inhibition) at 200 ppm [2] | percent effect (mortality or growth inhibition) at 200 ppm [3]

Fc1cccc(-n2nc(-c3ccc(Cl)cc3)nc2CN2CCC(c3ncccn3)CC2)c1 [Example 1.80]
≥ 80%: percent control (mortality, anti-feedant effect or growth inhibition) at 200 ppm [1] | percent effect (mortality or growth inhibition) at 200 ppm [2] | percent effect (mortality or growth inhibition) at 200 ppm [3]

Clc1ccc(-c2nc(CN3CCC(c4ncccn4)CC3)n(-c3ccccc3Cl)n2)cc1 [Example 1.83]
≥ 80%: percent control (mortality, anti-feedant effect or growth inhibition) at 200 ppm [1] | percent effect (mortality or growth inhibition) at 200 ppm [2] | percent effect (mortality or growth inhibition) at 200 ppm [3]

Cc1c(Cl)cccc1-n1nc(-c2ccc(Cl)cc2)nc1CN1CCC(c2ncccn2)CC1 [Example 1.84]
≥ 80%: percent control (mortality, anti-feedant effect or growth inhibition) at 200 ppm [1] | percent effect (mortality or growth inhibition) at 200 ppm [2] | percent effect (mortality or growth inhibition) at 200 ppm [3]

Cc1cc(Cl)ccc1-n1nc(-c2ccc(Cl)cc2)nc1CN1CCC(c2ncccn2)CC1 [Example 1.85]
≥ 80%: percent control (mortality, anti-feedant effect or growth inhibition) at 200 ppm [1] | percent effect (mortality or growth inhibition) at 200 ppm [2] | percent effect (mortality or growth inhibition) at 200 ppm [3]

Cc1nccc(C2CCN(Cc3nc(-c4ccc(Cl)cc4)nn3-c3ccccc3F)CC2)n1 [Example 1.110]
≥ 80%: percent control (mortality, anti-feedant effect or growth inhibition) at 200 ppm [1] | percent effect (mortality or growth inhibition) at 200 ppm [2] | percent effect (mortality or growth inhibition) at 200 ppm [3]

Fc1ccccc1-n1nc(-c2ccc(Cl)cc2)nc1CN1CCC(c2ccon2)CC1 [Example 1.120]
≥ 80%: percent control (mortality, anti-feedant effect or growth inhibition) at 200 ppm [1] | percent effect (mortality or growth inhibition) at 200 ppm [2] | percent effect (mortality or growth inhibition) at 200 ppm [3]

Fc1ccc(C2CCN(Cc3nc(-c4ccc(Cl)cc4)nn3-c3ccccc3F)CC2)nc1 [Example 1.122]
≥ 80%: percent control (mortality, anti-feedant effect or growth inhibition) at 200 ppm [1] | percent effect (mortality or growth inhibition) at 200 ppm [2] | percent effect (mortality or growth inhibition) at 200 ppm [3]

Fc1ccccc1-n1nc(-c2ccc(Cl)cc2)nc1CN1CCC(c2ncccc2Cl)CC1 [Example 1.126]
≥ 80%: percent control (mortality, anti-feedant effect or growth inhibition) at 200 ppm [1] | percent effect (mortality or growth inhibition) at 200 ppm [2] | percent effect (mortality or growth inhibition) at 200 ppm [3]

COC[C@@H]1CCCN1Cc1nc(-c2ccc(Cl)cc2)nn1-c1ccccc1F [Example 5.28]
≥ 80%: percent control (mortality, anti-feedant effect or growth inhibition) at 200 ppm [1] | percent effect (mortality or growth inhibition) at 200 ppm [2] | percent effect (mortality or growth inhibition) at 200 ppm [3]
